Source: ChEMBL document CHEMBL5108053 (J Med Chem, 2022)

Columns and labels:
[1] = Lipophilicity, logD of the compound in Octanol/potassium phosphate buffer at pH 7.4 after 1 hr by shake-flask based LC-MS/MS analysis; format: physicochemical; conditions: octanol/water, pH 7.4, 1 h
[2] = Oral bioavailability in C57BL/6 mouse at 1 mg/kg, iv or 10 mg/kg by HPLC analysis; format: ADME, organism-based; conditions: in vivo
[3] = Volume of distribution in C57BL/6 mouse at 1 mg/kg, iv or 10 mg/kg, po by HPLC analysis; format: ADME, organism-based; conditions: in vivo
[4] = Stability in human hepatocytes assessed as intrinsic clearance at 2 uM measured per 10^6 cells incubated at 15 to 120 mins by LC-MS/MS analysis; format: ADME, cell-based, Hepatocyte; conditions: time 15-120 min
[5] = Stability in mouse hepatocytes assessed as intrinsic clearance at 2 uM measured per 10^6 cells incubated at 15 to 120 mins by LC-MS/MS analysis; format: ADME, cell-based, Hepatocyte; conditions: time 15-120 min

Compound	logD [1]	bioavailability [2] [%]	Vd [3] [L/kg]	CLH [4] [µL/min]	CLH [5] [µL/min]
OC[C@H]1O[C@H](Sc2ccc(Cl)c(Cl)c2)[C@H](O)[C@@H](n2cc(-c3cc(F)c(F)c(F)c3)nn2)[C@H]1O	4.6	75	0.4	0.7	0.8
CC(=O)Nc1ccc(S[C@H]2O[C@H](CO)[C@H](O)[C@H](n3cc(-c4cc(F)c(F)c(F)c4)nn3)[C@H]2O)cc1	2.28				
OC[C@H]1O[C@@H](S[C@@H]2O[C@H](CO)[C@H](O)[C@H](n3cc(-c4cccc(F)c4)nn3)[C@H]2O)[C@H](O)[C@@H](n2cc(-c3cccc(F)c3)nn2)[C@H]1O [OLITIGALTIN]	2.1				

Next, values leading:

logD [1]	bioavailability [2] [%]	Vd [3] [L/kg]	CLH [4] [µL/min]	CLH [5] [µL/min]	Compound
2.4					C[C@H]1O[C@@H](S[C@@H]2O[C@H](CO)[C@H](O)[C@H](n3cc(-c4cccc(F)c4)nn3)[C@H]2O)[C@H](O)[C@@H](n2cc(-c3cccc(F)c3)nn2)[C@H]1O
3.4					CCCCSC[C@H]1O[C@@H](S[C@@H]2O[C@H](CO)[C@H](O)[C@H](n3cc(-c4cccc(F)c4)nn3)[C@H]2O)[C@H](O)[C@@H](n2cc(-c3cccc(F)c3)nn2)[C@H]1O
3.7	95	0.9	0.8	1.1	N#Cc1ccc(S[C@H]2O[C@H](CO)[C@H](O)[C@H](n3cc(-c4cc(F)c(F)c(F)c4)nn3)[C@H]2O)cc1Cl
3	68	1.1	0.15		OC[C@H]1O[C@H](Sc2cncc(Br)c2)[C@H](O)[C@@H](n2cc(-c3cc(F)c(F)c(F)c3)nn2)[C@H]1O [SELVIGALTIN]
